In US20240270751A1, “Pyrazolopyridinone Compounds” (BeiGene Ltd., priority 2021, published 2024):
Like-named read-outs stand apart in the source and are kept apart here.

How the values were obtained:
DGKζ = DGKζ (Homo sapiens (Human), UniProt Q13574); experiment: Biochemical DGK IC50 assay, DGKζ ADP-Glo assay; conditions: 0.5 nM enzyme, 140 μM ATP, 80 μM DAG
How it was run: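 Full-length human DGKζ, His-TEV tagged and purified from baculovirus-infected Sf9 cells, assayed by ADP-Glo with DAG/PS lipid micelle substrate prepared in 25 mM HEPES pH 7.0 with octyl glucoside. Final compound concentrations spanned 1.55–10000 nM or 23.3–150000 nM.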

DGKα = DGKα (Homo sapiens (Human), UniProt P23743); experiment: Biochemical DGK IC50 assay, DGKα ADP-Glo assay; conditions: 7.5 nM enzyme, 140 μM ATP, 80 μM DAG
How it was run: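 ADP-Glo read-out with full-length DGKα on DAG/PS lipid micelle substrate in 25 mM HEPES pH 7.0, 0.5 mM EDTA, 160 mM octyl β-D-glucopyranoside. Compound final concentrations spanned 1.55˜10000 nM or 23.3˜150000 nM.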

[1] = read-out: DGKζ ADP-Glo assay IC50

Chain of DGKα (P23743 whole entry): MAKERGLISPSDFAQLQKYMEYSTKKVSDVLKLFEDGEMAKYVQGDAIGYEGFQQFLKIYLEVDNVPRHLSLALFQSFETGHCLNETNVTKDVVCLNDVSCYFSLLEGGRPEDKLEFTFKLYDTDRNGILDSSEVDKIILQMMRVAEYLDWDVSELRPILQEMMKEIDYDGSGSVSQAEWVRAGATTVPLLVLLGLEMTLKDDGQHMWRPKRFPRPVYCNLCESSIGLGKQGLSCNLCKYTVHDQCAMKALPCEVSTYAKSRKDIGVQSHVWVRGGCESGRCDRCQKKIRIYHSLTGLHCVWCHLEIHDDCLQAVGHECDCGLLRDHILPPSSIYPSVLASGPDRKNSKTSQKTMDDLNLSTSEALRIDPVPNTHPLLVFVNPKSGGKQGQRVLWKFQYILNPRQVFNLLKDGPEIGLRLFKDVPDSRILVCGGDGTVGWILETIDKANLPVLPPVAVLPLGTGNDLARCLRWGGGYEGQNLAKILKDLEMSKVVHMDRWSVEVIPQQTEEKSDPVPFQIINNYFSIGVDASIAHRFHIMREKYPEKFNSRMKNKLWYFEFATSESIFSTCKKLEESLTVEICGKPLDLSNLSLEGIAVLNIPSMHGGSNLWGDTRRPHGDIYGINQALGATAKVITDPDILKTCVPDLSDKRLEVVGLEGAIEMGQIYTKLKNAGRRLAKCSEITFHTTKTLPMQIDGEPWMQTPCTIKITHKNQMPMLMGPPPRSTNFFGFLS
Chain of DGKζ (Q13574 other isoform, or with tags, fused parts or gaps): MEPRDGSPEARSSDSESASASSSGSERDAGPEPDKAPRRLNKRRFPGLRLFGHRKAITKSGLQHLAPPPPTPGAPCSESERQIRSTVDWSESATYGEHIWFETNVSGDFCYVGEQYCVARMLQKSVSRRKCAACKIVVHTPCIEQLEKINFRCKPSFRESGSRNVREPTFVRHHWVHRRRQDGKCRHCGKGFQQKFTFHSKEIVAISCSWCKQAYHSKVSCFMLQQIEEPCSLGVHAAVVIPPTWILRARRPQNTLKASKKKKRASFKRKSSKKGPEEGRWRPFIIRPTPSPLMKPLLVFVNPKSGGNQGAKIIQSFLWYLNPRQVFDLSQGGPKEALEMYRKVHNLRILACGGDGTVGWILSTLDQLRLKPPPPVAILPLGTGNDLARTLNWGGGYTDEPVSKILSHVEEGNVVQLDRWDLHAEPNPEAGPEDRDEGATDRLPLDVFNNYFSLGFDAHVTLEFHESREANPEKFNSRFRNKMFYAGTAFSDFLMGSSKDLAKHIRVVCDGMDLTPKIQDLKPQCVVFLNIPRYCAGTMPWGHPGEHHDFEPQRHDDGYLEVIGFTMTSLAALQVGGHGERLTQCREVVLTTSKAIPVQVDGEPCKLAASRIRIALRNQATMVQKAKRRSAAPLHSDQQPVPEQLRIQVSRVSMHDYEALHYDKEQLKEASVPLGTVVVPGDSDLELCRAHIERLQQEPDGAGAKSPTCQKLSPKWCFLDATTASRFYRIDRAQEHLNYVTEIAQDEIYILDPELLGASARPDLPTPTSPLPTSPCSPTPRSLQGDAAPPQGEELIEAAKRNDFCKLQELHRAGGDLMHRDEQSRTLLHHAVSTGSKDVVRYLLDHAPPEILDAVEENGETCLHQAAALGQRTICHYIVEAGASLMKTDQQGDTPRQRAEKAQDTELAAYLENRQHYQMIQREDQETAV

| SMILES | IC50 (DGKζ; [1]) | IC50 (DGKα) | IC50 (DGKζ; DGKζ ADP-Glo assay IC50(nM)) |
| --- | --- | --- | --- |
| CCC1CN(c2c(Br)c(=O)n(C)c3cn(CC#N)nc23)CCN1[C@@H](C)c1ccc2nccnc2c1 (stereo partly drawn) [Compound A179a, 2-(6-bromo-7-((2S,5R)-3-ethyl-4-(1-(quinoxalin-6-yl)ethyl)piperazin-1-yl)-4-methyl-5-oxo-4,5-dihydro-2H-pyrazolo[4,3-b]pyridin-2-yl)acetonitrile] | 7880 nM | > 10000 nM |  |
| [2H]c1nc2ccc(C(C)N3C[C@H](C)N(c4cc(=O)n(C)c5cn(CC#N)nc45)C[C@H]3C)cc2nc1[2H] (stereo partly drawn) [Compound A268, 2-(7-((2S,5R)-2,5-dimethyl-4-(1-(quinoxalin-6-yl-2,3-d2)ethyl)piperazin-1-yl)-4-methyl-5-oxo-4,5-dihydro-2H-pyrazolo[4,3-b]pyridin-2-yl)acetonitrile] |  | 16300 nM | 133 nM |
| CC[C@H]1CN(C2CCc3ccccc32)[C@H](CC)CN1c1cc(=O)n(C)c2cn(CC#N)nc12 (single isomer, unassigned) [Compound A149a] | 4160 nM | 4120 nM |  |
| CC[C@H]1CN(C(C)c2ncc(Cl)n2CC)[C@H](CC)CN1c1cc(=O)n(C)c2cn(CC#N)nc12 (single isomer, unassigned) [Compound A187a] | 5920 nM | 5740 nM |  |
| CC[C@H]1CN(C(C)c2cc3ccccc3cn2)[C@H](CC)CN1c1cc(=O)n(C)c2cn(CC#N)nc12 (stereo partly shown) [Compound A58] | 2.8 nM | 7.3 nM |  |
| CCc1cc(F)ccc1C(C)N1C[C@H](CC)N(c2cc(=O)n(C)c3cn(CC#N)nc23)C[C@H]1CC (stereo partly drawn) [Compound A205, 2-(7-((2S,5R)-2,5-diethyl-4-(1-(2-ethyl-4-fluorophenyl)ethyl)piperazin-1-yl)-4-methyl-5-oxo-4,5-dihydro-2H-pyrazolo[4,3-b]pyridin-2-yl)acetonitrile] | 151 nM | 63700 nM |  |
| CC[C@H]1CN(C(C)c2ccc(C)cc2)[C@H](CC)CN1c1cc(=O)n(C)c2cn(CC#N)nc12 (single isomer, unassigned) [Compound A127a] | 84 nM | 37 nM |  |
| CC(c1ccc2nccnc2c1)N1C[C@H](C)N(c2cc(=O)n(C)c3cn(S(C)(=O)=O)nc23)C[C@H]1C (stereo partly shown) [Compound A13] | 3700 nM | 5900 nM |  |
| C[C@@H](c1ccc2nccnc2c1)N1CC2CCC1CN2c1cc(=O)n(C)c2cn(CC#N)nc12 (stereo partly shown) [Compound A125a] | > 10000 nM | > 10000 nM |  |
| CC[C@H]1CN(C(C)c2nc3ccc(C(F)(F)F)cc3n2CC)[C@H](CC)CN1c1cc(=O)n(C)c2cn(CC#N)nc12 (single isomer, unassigned) [Compound A204a] | 3290 nM | > 10000 nM |  |
| CC[C@H]1CN(C(C)c2ncc(Cl)n2CC)[C@H](CC)CN1c1cc(=O)n(C)c2cn(CC#N)nc12 (single isomer, unassigned) [Compound A187b] | 199 nM | 6320 nM |  |
| Cc1c2c(nn1CC#N)c(N1C[C@@H](C)N(C(C)c3ccc(F)cc3C(F)(F)F)C[C@@H]1C)nc(=O)n2C (single isomer, unassigned) [Compound A267a] | > 10000 nM | > 10000 nM |  |
| CC[C@H]1CN(C(C)c2cccc(CN(C)C)c2)[C@H](CC)CN1c1cc(=O)n(C)c2cn(CC#N)nc12 (stereo partly shown) [Compound A151] | 2040 nM | > 10000 nM |  |
| COc1cc(F)c(C(C)N2C[C@H](C)N(c3cc(=O)n(C)c4cn(CC#N)nc34)C[C@H]2C)cc1F (stereo partly shown) [Compound A35] | 1200 nM | 870 nM |  |
| CC(c1ccc2nccnc2c1)N1CCN(c2cc(=O)n(C)c3cn(CC#N)nc23)CC1CO (stereo not shown) [Compound A184] | 6010 nM | > 10000 nM |  |
| CC(c1ccc2nccnc2c1)N1C[C@H](C)N(c2cc(=O)n(C)c3cn(C)nc23)C[C@H]1C (stereo partly shown) [Compound A3] | 3800 nM | 3200 nM |  |
| COCC[C@H]1CN(C(C)c2ccc3nccnc3c2)[C@H](C)CN1c1cc(=O)n(C)c2cn(CC#N)nc12 (stereo partly drawn) [Compound A164, 2-(7-((2S,5R)-2-(2-methoxyethyl)-5-methyl-4-(1-(quinoxalin-6-yl)ethyl)piperazin-1-yl)-4-methyl-5-oxo-4,5-dihydro-2H-pyrazolo[4,3-b]pyridin-2-yl)acetonitrile] | 72 nM | 8970 nM |  |
| CC[C@@H]1CN(c2nc(=O)[nH]c3cn(CC#N)nc23)[C@@H](C)CN1C(C)c1ccc2nccnc2c1 (single isomer, unassigned) [Compound A183a] | 110 nM | 7740 nM |  |

| SMILES | IC50 (DGKζ; [1]) | IC50 (DGKα) | IC50 (DGKζ; DGKζ ADP-Glo assay IC50(nM)) |
| --- | --- | --- | --- |
| CC#CCn1cc2c(n1)c(N1C[C@@H](C)N([C@@H](C)c3ccc4nccnc4c3)C[C@@H]1C)cc(=O)n2C [Compound A22b, 2-(but-2-yn-1-yl)-7-((2S,5R)-2,5-dimethyl-4-((S)-1-(quinoxalin-6-yl)ethyl)piperazin-1-yl)-4-methyl-2,4-dihydro-5H-pyrazolo[4,3-b]pyridin-5-one] | 72 nM | 190 nM |  |
| CC[C@H]1CN(C(C)c2ccc3c(n2)C(C)(C)CO3)[C@H](CC)CN1c1cc(=O)n(C)c2cn(CC#N)nc12 (stereo partly drawn) [Compound A352, 2-(7-((2S,5R)-4-(1-(3,3-dimethyl-2,3-dihydrofuro[3,2-b]pyridin-5-yl)ethyl)-2,5-diethylpiperazin-1-yl)-4-methyl-5-oxo-4,5-dihydro-2H-pyrazolo[4,3-b]pyridin-2-yl)acetonitrile] | 6 nM | 5400 nM |  |
| Cc1nc2c(C(C)N3C[C@H](C)N(c4cc(=O)n(C)c5cn(CC#N)nc45)C[C@H]3C)cccc2o1 (stereo partly shown) [Compound A45] | 1420 nM | > 10000 nM |  |
| CC[C@H]1CN(C(C)c2ncc(C(F)(F)F)cc2F)[C@H](CC)CN1c1cc(=O)n(C)c2cn(CC#N)nc12 (single isomer, unassigned) [Compound A354b] | 260 nM | 130 nM |  |
| CC#CCn1cc2c(n1)c(N1C[C@@H](C)N(C(C)c3ccc4nccnc4c3)C[C@@H]1C)cc(=O)n2C (mixture of isomers) [Compound A22, 2-(but-2-yn-1-yl)-7-((2S,5R)-2,5-dimethyl-4-(1-(quinoxalin-6-yl)ethyl)piperazin-1-yl)-4-methyl-2,4-dihydro-5H-pyrazolo[4,3-b]pyridin-5-one] | 94 nM | 200 nM |  |
| CC[C@H]1CN(C(C)c2ncc(C)cc2F)[C@H](CC)CN1c1cc(=O)n(C)c2cn(CC#N)nc12 (stereo partly shown) [Compound A359] | 299 nM | 117 nM |  |
| [2H]C([2H])([2H])n1c(=O)cc(N2C[C@@H](CC)N(C(C)c3ccc(F)cc3C(F)(F)F)C[C@@H]2CC)c2nn(CC#N)cc21 (stereo partly drawn) [Compound A276, 2-(7-((2S,5R)-2,5-diethyl-4-(1-(4-fluoro-2-(trifluoromethyl)phenyl)ethyl)piperazin-1-yl)-4-(methyl-d3)-5-oxo-4,5-dihydro-2H-pyrazolo[4,3-b]pyridin-2-yl)acetonitrile] | 131 nM | > 150000 nM |  |
| CC[C@H]1CN(C(C)c2c(OC)cc(F)cc2OC)[C@H](CC)CN1c1cc(=O)n(C)c2cn(CC#N)nc12 (stereo partly shown) [Compound A94] | 98 nM | 9130 nM |  |
| CC[C@H]1CN(C(C)c2cnc(C)cc2C(F)(F)F)[C@H](CC)CN1c1cc(=O)n(C)c2cn(CC#N)nc12 (stereo partly shown) [Compound A235] | 5380 nM | > 10000 nM |  |
| CC[C@H]1CN(C(C)c2ccc(C(F)(F)F)cc2)[C@H](CC)CN1c1cc(=O)n(C)c2cn(CC#N)nc12 (mixture of isomers) [Compound A103, 2-(7-((2S,5R)-2,5-diethyl-4-(1-(4-(trifluoromethyl)phenyl)ethyl)piperazin-1-yl)-4-methyl-5-oxo-4,5-dihydro-2H-pyrazolo[4,3-b]pyridin-2-yl)acetonitrile] | 107 nM | 208 nM |  |
| CC[C@@H]1CN(c2c(Cl)c(=O)n(C)c3cn(CC#N)nc23)CCN1C(C)c1ccc2nccnc2c1 (single isomer, unassigned) [Compound A162b] | 1050 nM | > 10000 nM |  |
| C[C@H](c1ccc2nccnc2c1)N1CC2CCC1CN2c1cc(=O)n(C)c2cn(CC#N)nc12 (stereo partly shown) [Compound A125b] | 5270 nM | > 10000 nM |  |
| CC(c1ccc2nccnc2c1)N1C[C@H](C)N(c2cc(=O)n(C)c3cn(C(CC#N)C4CCCC4)nc23)C[C@H]1C (stereo partly drawn) [Compound A20, 3-cyclopentyl-3-(7-((2S,5R)-2,5-dimethyl-4-(1-(quinoxalin-6-yl)ethyl)piperazin-1-yl)-4-methyl-5-oxo-4,5-dihydro-2H-pyrazolo[4,3-b]pyridin-2-yl)propanenitrile] | 39000 nM | > 150000 nM |  |
| CC[C@H]1CN(C(C)c2cnc(Cl)cc2C(F)(F)F)[C@H](CC)CN1c1cc(=O)n(C)c2cn(CC#N)nc12 (stereo partly shown) [Compound A226] | 2290 nM | 8430 nM |  |
| CC[C@H]1CN(C(C)c2ccc3c(c2)OCCO3)[C@H](CC)CN1c1cc(=O)n(C)c2cn(CC#N)nc12 (stereo partly drawn) [Compound A126, 2-(7-((2S,5R)-4-(1-(2,3-dihydrobenzo[b][1,4]dioxin-6-yl)ethyl)-2,5-diethylpiperazin-1-yl)-4-methyl-5-oxo-4,5-dihydro-2H-pyrazolo[4,3-b]pyridin-2-yl)acetonitrile] | 7.2 nM | 449 nM |  |
| CC[C@H]1CN(C(C)c2ccc(C(F)F)nc2)[C@H](CC)CN1c1cc(=O)n(C)c2cn(CC#N)nc12 (single isomer, unassigned) [Compound A351a] | 167 nM | 274 nM |  |
| CC#CCn1cc2c(n1)c(N1C[C@@H](CC)N(C(C)c3ccc(C(F)(F)F)cc3F)C[C@@H]1CC)cc(=O)n2C (single isomer, unassigned) [Compound A334a] | 978 nM | 308 nM |  |
